Experimental findings from PMC13210772, “Dual FLT3/MAPK14 Proteolysis-Targeting Chimera (PROTAC) Induces Potent Acute Myeloid Leukemia Cell Death” (Pharmaceuticals, 2026) are described below.

A short description of data set [1]: Non-enzymatic stability under cellular assay conditions (HPLC). As to conditions: compound remaining, assay medium DMEM, 37 °C. In kind it is physicochemical. The method, then:
An important aspect in the development of PROTACs is testing chemical stability. On the one hand, we tested all PROTACs produced for their stability under cellular assay conditions. For this purpose, 10 µM solutions of the PROTACs and reference inhibitor were incubated for 72 h at 37 °C with the assay medium DMEM. The remaining amount of the compounds was determined by HPLC after 6, 12, 24, 48 and 72 h. The results of the stability studies are shown in Table S2 (Supplementary Information).
The developed compounds were diluted in the assay media consisting of a mixture of DMEM (50%), DMSO (10%) and acetonitrile (40%) at pH 7.4 and incubated at 37 °C for 72 h. The quantity of the compounds was measured after 6, 12, 24, 48, and 72 h by HPLC using an XTerra RP18 column ([…], 3.9 mm × 100 mm) from the manufacturer Waters (Milford, MA, USA) and two LC-10AD pumps, an SPD-M10AVP PDA detector, and an SIL-HT autosampler, all from the manufacturer Shimadzu (Kyoto, Japan).

A further data set is described as follows: in vitro. The conditions noted are these: human, HEK293 cells.
For another data set, the target named is T1, FLT3-ITD (Homo sapiens, UniProt P36888, INS600HVDFREYEYD).
T1 sequence (P36888 with tags, fused parts or gaps INS600HVDFREYEYD): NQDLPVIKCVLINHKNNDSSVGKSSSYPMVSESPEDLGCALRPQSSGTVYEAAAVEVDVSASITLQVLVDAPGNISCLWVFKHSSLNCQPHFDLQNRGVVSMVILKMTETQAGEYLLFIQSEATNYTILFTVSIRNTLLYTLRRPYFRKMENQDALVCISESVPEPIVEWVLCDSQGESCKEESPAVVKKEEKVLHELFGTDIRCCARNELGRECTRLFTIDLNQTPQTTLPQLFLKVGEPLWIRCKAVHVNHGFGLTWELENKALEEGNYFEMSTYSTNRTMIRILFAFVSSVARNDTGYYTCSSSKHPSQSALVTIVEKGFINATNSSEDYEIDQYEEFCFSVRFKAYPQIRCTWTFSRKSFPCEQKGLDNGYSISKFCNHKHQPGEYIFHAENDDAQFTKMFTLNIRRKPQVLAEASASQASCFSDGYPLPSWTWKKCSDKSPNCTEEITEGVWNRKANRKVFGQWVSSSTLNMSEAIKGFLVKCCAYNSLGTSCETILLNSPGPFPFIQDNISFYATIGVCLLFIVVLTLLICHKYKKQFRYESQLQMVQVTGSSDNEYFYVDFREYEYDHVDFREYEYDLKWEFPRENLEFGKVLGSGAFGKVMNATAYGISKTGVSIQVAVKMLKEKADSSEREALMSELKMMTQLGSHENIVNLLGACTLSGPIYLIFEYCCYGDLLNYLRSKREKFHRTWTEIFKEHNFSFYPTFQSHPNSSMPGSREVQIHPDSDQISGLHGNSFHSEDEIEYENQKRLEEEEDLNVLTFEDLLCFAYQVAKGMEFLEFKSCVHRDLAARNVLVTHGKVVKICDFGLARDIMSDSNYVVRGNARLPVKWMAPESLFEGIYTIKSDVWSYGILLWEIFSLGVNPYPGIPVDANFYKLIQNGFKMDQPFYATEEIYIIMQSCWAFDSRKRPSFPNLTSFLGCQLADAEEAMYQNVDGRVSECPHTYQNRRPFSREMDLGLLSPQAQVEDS
The data set can be described thus: FLT3-ITD degradation, immunoblot in MV4-11 cells. The conditions noted are these: for inhibition at 0.05 µM: MV4-11, 24 h, read-out: % FLT3-ITD Degradation at 50 nM; for reduction/elimination of FLT3-ITD / FLT3-ITD degradation / FLT3-ITD (130 kDa) level relative to untreated cells: MV4-11 cells; for FLT3-ITD degradation / FLT3-ITD (130 kDa) level relative to untreated cells: 50 nM; for FLT3-ITD degradation: 24 h.

The target of data set [2] is T2, MAPK14 (Homo sapiens, UniProt Q16539). Description: KINOMEscan binding assay. Also noted: purchased Eurofins DiscoverX Corporation; host or cells: E. coli BL21-derived (T7 phage) or HEK-293. The method, then:
Kinase-tagged T7 phage strains were prepared in an E. coli host derived from the BL21 strain. E. coli were grown to log-phase and infected with T7 phage and incubated with shaking at 32 °C until lysis. The lysates were centrifuged and filtered to remove cell debris. The remaining kinases were produced in HEK-293 cells and subsequently tagged with DNA for qPCR detection. […] The liganded beads were blocked with excess biotin and washed with blocking buffer (SeaBlock (Pierce), 1% BSA, 0.05% Tween 20, 1 mM DTT) to remove unbound ligand and to reduce non-specific binding. […] The compounds were then diluted directly into the assays such that the final concentration of DMSO was 0.9%. All reactions performed in polypropylene 384-well plate. Each was a final volume of 0.02 mL. […] The kinase concentration in the eluates was measured by qPCR.

The target in another data set is T3, HCK (Homo sapiens, UniProt P08631).
T3 construct: Full-length kinase ORF (Promega, Madison, WI, USA) cloned in frame with a NanoLuc-vector was transfected into HEK293T cells; host or cells: HEK293T
T3 sequence (P08631 whole entry): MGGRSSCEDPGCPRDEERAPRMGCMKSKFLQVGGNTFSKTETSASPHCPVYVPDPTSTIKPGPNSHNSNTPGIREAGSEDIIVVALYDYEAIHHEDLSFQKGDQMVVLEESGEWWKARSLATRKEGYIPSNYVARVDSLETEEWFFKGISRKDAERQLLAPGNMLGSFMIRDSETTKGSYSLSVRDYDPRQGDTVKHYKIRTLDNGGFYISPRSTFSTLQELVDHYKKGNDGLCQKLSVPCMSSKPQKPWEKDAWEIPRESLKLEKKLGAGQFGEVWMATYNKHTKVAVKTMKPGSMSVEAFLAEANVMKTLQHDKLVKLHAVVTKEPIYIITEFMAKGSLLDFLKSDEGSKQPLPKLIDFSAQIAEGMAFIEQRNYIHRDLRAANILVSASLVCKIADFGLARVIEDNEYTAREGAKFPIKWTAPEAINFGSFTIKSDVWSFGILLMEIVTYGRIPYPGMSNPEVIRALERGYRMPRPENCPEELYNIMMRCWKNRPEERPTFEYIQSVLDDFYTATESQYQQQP
The data set can be described thus: NanoBRET CELLinib128. As to conditions: 100% no effect, 0% complete tracer displacement, read-out: Tracer bound. In kind it is binding. (BRET reads energy transfer from a luciferase to a nearby fluorophore.)

The target of another data set is T4, PTK6 (Homo sapiens, UniProt Q13882).
T4 construct: Full-length kinase ORF (Promega, Madison, WI, USA) cloned in frame with a NanoLuc-vector was transfected into HEK293T cells; host or cells: HEK293T
T4 sequence (Q13882 whole entry): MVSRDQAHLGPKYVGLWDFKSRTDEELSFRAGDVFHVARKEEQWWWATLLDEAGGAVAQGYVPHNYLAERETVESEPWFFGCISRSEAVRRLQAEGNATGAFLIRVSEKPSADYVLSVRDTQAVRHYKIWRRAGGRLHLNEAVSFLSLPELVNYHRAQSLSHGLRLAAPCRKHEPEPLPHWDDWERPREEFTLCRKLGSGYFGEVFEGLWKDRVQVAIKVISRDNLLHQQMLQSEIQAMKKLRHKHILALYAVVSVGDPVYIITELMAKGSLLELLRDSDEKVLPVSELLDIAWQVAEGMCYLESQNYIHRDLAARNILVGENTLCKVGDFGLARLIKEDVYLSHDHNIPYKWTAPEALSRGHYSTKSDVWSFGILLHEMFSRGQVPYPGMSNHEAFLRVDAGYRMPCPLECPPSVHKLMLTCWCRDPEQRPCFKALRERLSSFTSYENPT
The data set can be described thus: NanoBRET CELLinib128. In kind it is binding. The conditions noted are these: 100% no effect, 0% complete tracer displacement, read-out: Tracer bound.

A further data set addresses EPHA2 (Homo sapiens, UniProt P29317). Description: NanoBRET CELLinib128. As to conditions: read-out: Tracer bound.
In another data set the target is EPHA8 (Homo sapiens, UniProt P29322). Description: NanoBRET CELLinib128. The conditions noted are these: read-out: Tracer bound.
Chain of EPHA8 (P29322 28-1005): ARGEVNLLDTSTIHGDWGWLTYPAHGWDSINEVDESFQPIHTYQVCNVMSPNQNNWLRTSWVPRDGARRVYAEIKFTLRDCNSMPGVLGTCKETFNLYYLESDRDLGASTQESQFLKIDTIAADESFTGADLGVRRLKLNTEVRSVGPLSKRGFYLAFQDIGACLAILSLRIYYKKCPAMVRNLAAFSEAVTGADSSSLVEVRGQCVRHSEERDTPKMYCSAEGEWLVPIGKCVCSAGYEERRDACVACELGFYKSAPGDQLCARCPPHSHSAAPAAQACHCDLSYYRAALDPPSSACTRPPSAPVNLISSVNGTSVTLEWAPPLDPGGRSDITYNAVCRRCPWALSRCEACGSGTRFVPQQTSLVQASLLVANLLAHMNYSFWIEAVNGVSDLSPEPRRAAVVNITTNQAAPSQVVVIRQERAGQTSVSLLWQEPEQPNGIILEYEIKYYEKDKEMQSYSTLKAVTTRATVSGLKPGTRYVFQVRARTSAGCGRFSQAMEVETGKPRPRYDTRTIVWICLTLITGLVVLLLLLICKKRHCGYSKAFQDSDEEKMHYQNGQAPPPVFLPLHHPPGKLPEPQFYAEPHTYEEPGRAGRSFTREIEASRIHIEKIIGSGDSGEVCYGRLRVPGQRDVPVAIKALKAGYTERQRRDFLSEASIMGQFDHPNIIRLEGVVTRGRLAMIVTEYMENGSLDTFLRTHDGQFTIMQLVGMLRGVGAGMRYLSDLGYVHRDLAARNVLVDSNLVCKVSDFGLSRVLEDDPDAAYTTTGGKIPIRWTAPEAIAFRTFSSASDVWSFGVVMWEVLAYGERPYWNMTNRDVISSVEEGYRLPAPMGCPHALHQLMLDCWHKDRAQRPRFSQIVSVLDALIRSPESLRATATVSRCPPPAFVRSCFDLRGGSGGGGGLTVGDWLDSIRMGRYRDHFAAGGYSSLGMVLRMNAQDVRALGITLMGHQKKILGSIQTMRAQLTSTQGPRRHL
Another data set has as its target GSK3B (Homo sapiens, UniProt P49841). The data set can be described thus: NanoBRET CELLinib128. The conditions noted are these: read-out: Tracer bound.
For another data set, the target named is MAPK11 (Homo sapiens, UniProt Q15759). Description: NanoBRET CELLinib128. The conditions noted are these: read-out: Tracer bound.
Chain of MAPK11 (Q15759 whole entry): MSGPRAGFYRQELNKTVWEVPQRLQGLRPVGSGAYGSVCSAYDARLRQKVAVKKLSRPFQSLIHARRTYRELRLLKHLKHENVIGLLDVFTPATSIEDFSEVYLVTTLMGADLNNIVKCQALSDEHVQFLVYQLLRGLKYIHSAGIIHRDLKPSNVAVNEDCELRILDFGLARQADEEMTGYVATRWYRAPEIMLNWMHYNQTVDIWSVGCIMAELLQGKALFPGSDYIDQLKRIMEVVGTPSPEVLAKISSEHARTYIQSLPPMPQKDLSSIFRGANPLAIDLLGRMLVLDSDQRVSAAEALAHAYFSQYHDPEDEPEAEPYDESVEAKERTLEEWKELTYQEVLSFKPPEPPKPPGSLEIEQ
The target of data set [3] is T2, MAPK14. The data set can be described thus: NanoBRET CELLinib128. As to conditions: 1 µM; 100% no effect, 0% complete tracer displacement.
The target in the next data set is MARK3 (Homo sapiens, UniProt P27448). The data set can be described thus: NanoBRET CELLinib128. The conditions noted are these: read-out: Tracer bound.
Chain of MARK3 (P27448 whole entry): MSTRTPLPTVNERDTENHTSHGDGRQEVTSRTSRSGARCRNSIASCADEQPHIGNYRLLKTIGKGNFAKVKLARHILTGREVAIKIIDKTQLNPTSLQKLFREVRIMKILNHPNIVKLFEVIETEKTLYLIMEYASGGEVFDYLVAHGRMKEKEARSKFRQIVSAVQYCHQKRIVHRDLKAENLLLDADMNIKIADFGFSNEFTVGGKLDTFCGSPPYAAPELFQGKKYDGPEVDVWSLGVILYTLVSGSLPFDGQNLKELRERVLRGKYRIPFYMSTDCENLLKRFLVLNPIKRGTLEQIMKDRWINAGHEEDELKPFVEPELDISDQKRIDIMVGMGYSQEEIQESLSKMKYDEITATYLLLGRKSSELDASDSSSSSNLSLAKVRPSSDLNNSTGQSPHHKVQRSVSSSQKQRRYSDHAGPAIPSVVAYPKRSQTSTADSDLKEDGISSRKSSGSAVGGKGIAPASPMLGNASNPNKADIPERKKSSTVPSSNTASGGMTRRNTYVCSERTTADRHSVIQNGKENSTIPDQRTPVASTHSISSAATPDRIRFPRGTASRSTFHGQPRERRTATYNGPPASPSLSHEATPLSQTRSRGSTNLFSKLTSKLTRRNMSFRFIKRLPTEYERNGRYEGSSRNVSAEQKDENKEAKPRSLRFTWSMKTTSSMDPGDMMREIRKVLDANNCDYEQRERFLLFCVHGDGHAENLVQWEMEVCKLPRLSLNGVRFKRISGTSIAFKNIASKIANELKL
The target in the next data set is PLK2 (Homo sapiens, UniProt Q9NYY3). The data set can be described thus: NanoBRET CELLinib128. The conditions noted are these: 1 µM; 100% no effect, 0% complete tracer displacement.
Chain of PLK2 (Q9NYY3 whole entry): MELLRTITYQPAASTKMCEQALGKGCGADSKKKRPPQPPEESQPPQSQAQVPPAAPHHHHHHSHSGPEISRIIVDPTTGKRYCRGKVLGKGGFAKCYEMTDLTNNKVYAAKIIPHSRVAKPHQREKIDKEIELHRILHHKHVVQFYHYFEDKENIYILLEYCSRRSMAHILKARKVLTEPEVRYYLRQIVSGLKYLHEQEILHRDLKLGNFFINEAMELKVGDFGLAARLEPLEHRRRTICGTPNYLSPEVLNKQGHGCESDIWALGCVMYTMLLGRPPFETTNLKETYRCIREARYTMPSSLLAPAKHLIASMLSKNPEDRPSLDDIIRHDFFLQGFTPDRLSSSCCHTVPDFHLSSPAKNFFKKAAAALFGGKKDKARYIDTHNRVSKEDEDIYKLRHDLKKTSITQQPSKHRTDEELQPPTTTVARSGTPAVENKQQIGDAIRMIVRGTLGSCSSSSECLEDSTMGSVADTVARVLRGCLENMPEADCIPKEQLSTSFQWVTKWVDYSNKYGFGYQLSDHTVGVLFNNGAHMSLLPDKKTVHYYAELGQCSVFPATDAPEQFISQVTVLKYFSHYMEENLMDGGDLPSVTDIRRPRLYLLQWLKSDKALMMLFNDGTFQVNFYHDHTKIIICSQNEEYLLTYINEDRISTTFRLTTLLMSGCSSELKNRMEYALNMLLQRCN

T2 sequence (Q16539 whole entry): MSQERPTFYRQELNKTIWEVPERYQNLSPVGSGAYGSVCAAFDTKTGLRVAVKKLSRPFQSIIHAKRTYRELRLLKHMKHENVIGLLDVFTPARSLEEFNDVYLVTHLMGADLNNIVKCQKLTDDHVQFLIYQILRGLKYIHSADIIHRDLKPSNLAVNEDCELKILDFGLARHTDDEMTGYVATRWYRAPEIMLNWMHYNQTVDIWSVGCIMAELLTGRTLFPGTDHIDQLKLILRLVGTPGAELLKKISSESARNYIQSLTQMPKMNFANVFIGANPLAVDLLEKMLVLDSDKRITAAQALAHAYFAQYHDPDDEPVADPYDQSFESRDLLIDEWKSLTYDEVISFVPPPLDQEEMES
Chain of GSK3B (P49841 whole entry): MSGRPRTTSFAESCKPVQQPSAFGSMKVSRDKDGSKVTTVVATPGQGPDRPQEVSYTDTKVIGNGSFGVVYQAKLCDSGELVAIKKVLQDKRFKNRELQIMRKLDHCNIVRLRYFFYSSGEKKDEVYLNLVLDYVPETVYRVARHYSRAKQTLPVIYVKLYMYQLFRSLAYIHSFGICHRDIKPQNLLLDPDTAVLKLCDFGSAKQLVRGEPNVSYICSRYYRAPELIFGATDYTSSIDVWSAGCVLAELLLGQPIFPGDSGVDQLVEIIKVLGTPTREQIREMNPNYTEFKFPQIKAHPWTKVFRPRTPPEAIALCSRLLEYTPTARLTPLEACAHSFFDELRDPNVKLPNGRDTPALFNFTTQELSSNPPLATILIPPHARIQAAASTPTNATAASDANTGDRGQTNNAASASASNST

As a reminder, the viability is a read-out of living cells in per cent, often relative to untreated cells. A lower viability goes with a greater loss of cells. Consider `Cc1ncsc1-c1ccc([C@H](C)NC(=O)[C@@H]2C[C@@H](O)CN2C(=O)[C@@H](NC(=O)CCOCCOCCOCCNC(=O)c2cc(Oc3ccc(NC(=O)Nc4cc(C(C)(C)C)on4)cc3)ccn2)C(C)(C)C)cc1` [MA49, reference compound], for which, in [1], the “0 h - %” value was 100%, the 6 h- % was 101.1%, the 12 h- % worked out at 101.4% and the 24 h- % was determined as 103.5%. For the same compound, in data set [1], the 48 h- % was found to be 104.2% and the 72 h- % is on record as 104.9%. In the data set “in vitro”, this compound had a viability at 24 h, 50 µM of 2.9 ± 0.3%. In addition, on FLT3-ITD, the inhibition at 0.05 µM was found to be 80% and the “reduction/elimination of FLT3-ITD” value was found to be 80%. In addition, the “% MAPK- 14 Binding at 1 µM” value on MAPK14 [2] was found to be 81 ± 0%.

As for `CNC(=O)c1cc(Oc2ccc(NC(=O)Nc3cc(C(C)(C)C)on3)cc2)ccn1` [MA68, reference compound], the “0 h - %” value in data set [1] is 100%. The 6 h- % in data set [1] is reported as 101.0%. The compound also had a 12 h- % in [1] of 102.4%. The 24 h- % in data set [1] is listed as 102.1%. In data set [1], this compound displayed a 48 h- % of 105.7%. Moreover, in data set [1], the 72 h- % is listed as 105.2%. In addition, the remaining activity at 1 µM turned out to be 120% at HCK; 67.6% on PTK6; 10.6% at EPHA2; 38.9% at EPHA8; 120% on GSK3B; 24% on MAPK11. For the same compound, on MARK3, the remaining activity at 1 µM amounted to 105%. The compound also had a viability at 24 h, 50 µM in the data set “in vitro” of 11.5 ± 2.2%. Also, the Tracer bound is reported as 25.9% on MAPK14 [3] and 98.1% at PLK2. Besides, the “FLT3-ITD degradation” value at FLT3-ITD was “but not their underlying kinase inhibitor MA68, eliminate FLT3-ITD”.

For `Cc1ncsc1-c1ccc([C@H](C)NC(=O)[C@@H]2C[C@@H](O)CN2C(=O)[C@@H](NC(=O)[C@H]2CC[C@H](C(=O)N3CCC(CCNC(=O)c4cc(Oc5ccc(NC(=O)Nc6cc(C(C)(C)C)on6)cc5)ccn4)CC3)CC2)C(C)(C)C)cc1` [MA190, 4-(4-(3-(5-(tert-Butyl)isoxazol-3-yl)ureido)phenoxy)-N-(2-(1-(trans-4-(((S)-1-((2S,4R)-4-hydroxy-2-(((S)-1-(4-(4-methylthiazol-5-yl)phenyl)ethyl)carbamoyl)pyrrolidin-1-yl)-3,3-dimethyl-1-oxobutan-2-yl)carbamoyl)cyclohexanecarbonyl)piperidin-4-yl)ethyl)picolinamide], in data set [1], the “0 h - %” value came out at 100%, the 6 h- % is recorded as 102.6%, the 12 h- % came out at 103.2% and the 24 h- % was determined as 104.4%. Moreover, in data set [1], the 48 h- % worked out at 105.4% and the 72 h- % is listed as 107.4%. The compound further had a viability at 24 h, 50 µM in “in vitro” of 99.1 ± 3.1%. Also, at FLT3-ITD, the inhibition at 0.05 µM is 95%, the “reduction/elimination of FLT3-ITD” value is reported as over 95%, the “FLT3-ITD (130 kDa) level relative to untreated cells” value is on record as 5% and the “FLT3-ITD degradation” value is “eliminate FLT3-ITD”. The “% MAPK- 14 Binding at 1 µM” value at MAPK14 [2] was determined as 90 ± 2%.

Regarding `Cc1ncsc1-c1ccc([C@H](C)NC(=O)[C@@H]2C[C@@H](O)CN2C(=O)[C@@H](NC(=O)[C@H]2CC[C@H](C(=O)N3CCN(CCNC(=O)c4cc(Oc5ccc(NC(=O)Nc6cc(C(C)(C)C)on6)cc5)ccn4)CC3)CC2)C(C)(C)C)cc1` [MA191, 4-(4-(3-(5-(tert-Butyl)isoxazol-3-yl)ureido)phenoxy)-N-(2-(4-(trans-4-(((S)-1-((2S,4R)-4-hydroxy-2-(((S)-1-(4-(4-methylthiazol-5-yl)phenyl)ethyl)carbamoyl)pyrrolidin-1-yl)-3,3-dimethyl-1-oxobutan-2-yl)carbamoyl)cyclohexanecarbonyl)piperazin-1-yl)ethyl)picolinamide], in data set [1], the “0 h - %” value is 100%, the 6 h- % is reported as 100.3%, the 12 h- % was determined as 100.0% and the 24 h- % is listed as 99.7%. For the same compound, in [1], the 48 h- % is listed as 100.3% and the 72 h- % was found to be 100.3%. Also, at HCK, the remaining activity at 1 µM was found to be 120%. Further, the remaining activity at 1 µM at PTK6 came out at 118%. For the same compound, the viability at 24 h, 50 µM in the data set “in vitro” turned out to be 86.9 ± 5.8%. In addition, on EPHA2, the remaining activity at 1 µM turned out to be 104%. For the same compound, the remaining activity at 1 µM on EPHA8 amounted to 120%. Also, the remaining activity at 1 µM on GSK3B stood at 120%. Moreover, the remaining activity at 1 µM at MAPK11 came to 96.2%. Also, at MAPK14 [3], the Tracer bound came to 70.3%. At MARK3, the remaining activity at 1 µM amounted to 102%. The same compound gave a Tracer bound at PLK2 of 107.6%. On FLT3-ITD, the inhibition at 0.05 µM was 95%, the “reduction/elimination of FLT3-ITD” value is recorded as over 95%, the “FLT3-ITD (130 kDa) level relative to untreated cells” value is listed as 5% and the “FLT3-ITD degradation” value is listed as “eliminate FLT3-ITD”. Also, the “% MAPK- 14 Binding at 1 µM” value at MAPK14 [2] is 89 ± 2%.
